In publication PMC8383264, “Structural Characterization of the Reaction and Substrate Specificity Mechanisms of Pathogenic Fungal Acetyl-CoA Synthetases” (ACS Chemical Biology, 2021):

Tests used:
C. immitis Acs1 = C. immitis Acs1 (Coccidioides immitis, UniProt J3KJC6); details: 37 °C
C. posadasii Acs1 = C. posadasii Acs1 (Coccidioides posadasii, UniProt C5PGB4); details: 37 °C
CnAcs1 = CnAcs1 (Cryptococcus neoformans, UniProt J9VFT1); test: Coupled continuous pyrophosphate detection assay (EnzChek) of ACS activity
A. fumigatus Acs1 = molecular target: T1, A. fumigatus Acs1 (Aspergillus fumigatus, UniProt Q4WQ02); test: as above; details: substrate Km; other substrates in excess; 37 °C; ±S.E.M.
T1 sequence (Q4WQ02 2-670): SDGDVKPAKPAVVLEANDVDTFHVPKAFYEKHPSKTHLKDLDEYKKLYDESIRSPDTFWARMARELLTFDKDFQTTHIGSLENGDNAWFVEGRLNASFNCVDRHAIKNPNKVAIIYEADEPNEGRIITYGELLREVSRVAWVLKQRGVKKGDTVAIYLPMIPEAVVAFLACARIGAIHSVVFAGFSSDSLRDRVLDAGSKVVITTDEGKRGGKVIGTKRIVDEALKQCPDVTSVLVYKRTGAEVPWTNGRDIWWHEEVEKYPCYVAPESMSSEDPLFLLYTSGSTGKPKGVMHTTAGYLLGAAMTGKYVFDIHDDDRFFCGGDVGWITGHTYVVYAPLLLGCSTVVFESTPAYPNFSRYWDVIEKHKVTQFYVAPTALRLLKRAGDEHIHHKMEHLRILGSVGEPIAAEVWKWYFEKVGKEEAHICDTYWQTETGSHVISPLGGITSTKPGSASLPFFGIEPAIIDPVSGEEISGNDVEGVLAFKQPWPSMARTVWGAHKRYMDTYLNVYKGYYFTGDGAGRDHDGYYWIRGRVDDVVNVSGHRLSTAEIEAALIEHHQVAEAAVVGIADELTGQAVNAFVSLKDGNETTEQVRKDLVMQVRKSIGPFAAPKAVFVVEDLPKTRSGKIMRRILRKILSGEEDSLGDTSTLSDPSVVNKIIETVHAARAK

C. albicans Acs1 = C. albicans Acs1 (Candida albicans, UniProt Q8NJN3); test: as above; details: 37 °C
S. cerevisiae Acs1 = molecular target: T2, S. cerevisiae Acs1 (Saccharomyces cerevisiae, UniProt Q01574); test: as above; details: 37 °C
T2 sequence (Q01574 1-713): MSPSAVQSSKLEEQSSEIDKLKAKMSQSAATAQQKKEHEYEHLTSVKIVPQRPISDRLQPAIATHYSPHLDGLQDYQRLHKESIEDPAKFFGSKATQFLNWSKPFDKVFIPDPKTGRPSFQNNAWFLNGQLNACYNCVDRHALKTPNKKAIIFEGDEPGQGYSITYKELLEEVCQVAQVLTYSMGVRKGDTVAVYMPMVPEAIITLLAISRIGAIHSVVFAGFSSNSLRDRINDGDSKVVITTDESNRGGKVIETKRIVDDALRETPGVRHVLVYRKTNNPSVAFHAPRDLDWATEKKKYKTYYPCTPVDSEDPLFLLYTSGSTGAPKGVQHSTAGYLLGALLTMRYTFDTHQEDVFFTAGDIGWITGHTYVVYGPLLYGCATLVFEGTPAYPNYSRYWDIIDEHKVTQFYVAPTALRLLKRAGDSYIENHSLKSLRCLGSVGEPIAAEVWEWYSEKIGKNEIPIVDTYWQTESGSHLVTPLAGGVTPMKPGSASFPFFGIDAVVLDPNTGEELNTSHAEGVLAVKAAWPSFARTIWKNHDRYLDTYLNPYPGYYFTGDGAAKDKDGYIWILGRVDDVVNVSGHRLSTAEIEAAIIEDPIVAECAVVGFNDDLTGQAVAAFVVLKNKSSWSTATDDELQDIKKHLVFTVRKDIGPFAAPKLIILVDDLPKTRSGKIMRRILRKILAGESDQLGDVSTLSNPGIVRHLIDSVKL

Chain of CnAcs1 (J9VFT1 entry or part of it): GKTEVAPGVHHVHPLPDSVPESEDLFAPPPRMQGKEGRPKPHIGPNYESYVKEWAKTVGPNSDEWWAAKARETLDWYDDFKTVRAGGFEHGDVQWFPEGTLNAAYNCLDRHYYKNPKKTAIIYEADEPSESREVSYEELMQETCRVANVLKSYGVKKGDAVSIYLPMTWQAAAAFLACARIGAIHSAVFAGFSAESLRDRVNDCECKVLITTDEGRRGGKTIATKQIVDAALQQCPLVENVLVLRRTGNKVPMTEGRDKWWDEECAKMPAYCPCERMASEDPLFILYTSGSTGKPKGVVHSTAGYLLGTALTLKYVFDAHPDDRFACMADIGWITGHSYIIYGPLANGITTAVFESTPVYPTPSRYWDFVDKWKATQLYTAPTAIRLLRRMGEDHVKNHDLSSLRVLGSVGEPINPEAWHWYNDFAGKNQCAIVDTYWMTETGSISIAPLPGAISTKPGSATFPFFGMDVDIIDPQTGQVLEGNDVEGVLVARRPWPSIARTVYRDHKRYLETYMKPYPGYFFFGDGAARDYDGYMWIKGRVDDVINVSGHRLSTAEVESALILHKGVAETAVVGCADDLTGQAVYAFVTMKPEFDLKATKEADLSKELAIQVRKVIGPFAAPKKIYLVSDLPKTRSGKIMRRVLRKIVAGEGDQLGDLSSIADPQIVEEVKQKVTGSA
Chain of C. albicans Acs1 (Q8NJN3 2-671 limits assumed): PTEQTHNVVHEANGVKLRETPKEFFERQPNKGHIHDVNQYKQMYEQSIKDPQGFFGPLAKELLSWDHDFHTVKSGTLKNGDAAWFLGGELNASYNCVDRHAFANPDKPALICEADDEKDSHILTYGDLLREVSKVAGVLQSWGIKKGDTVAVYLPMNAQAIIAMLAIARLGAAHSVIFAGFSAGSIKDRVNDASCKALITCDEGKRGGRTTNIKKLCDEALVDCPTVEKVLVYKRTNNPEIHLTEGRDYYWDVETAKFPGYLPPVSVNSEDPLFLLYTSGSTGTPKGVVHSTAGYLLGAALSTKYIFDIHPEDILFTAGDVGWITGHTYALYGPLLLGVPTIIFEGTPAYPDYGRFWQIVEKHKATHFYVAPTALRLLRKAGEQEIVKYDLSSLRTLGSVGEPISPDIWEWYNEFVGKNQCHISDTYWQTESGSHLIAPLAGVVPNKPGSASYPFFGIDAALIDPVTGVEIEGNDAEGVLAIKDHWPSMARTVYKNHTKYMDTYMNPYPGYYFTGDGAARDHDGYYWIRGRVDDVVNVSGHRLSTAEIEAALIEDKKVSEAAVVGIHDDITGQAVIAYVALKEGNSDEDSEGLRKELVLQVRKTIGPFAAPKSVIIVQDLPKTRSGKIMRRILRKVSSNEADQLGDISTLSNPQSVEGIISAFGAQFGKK
Chain of C. immitis Acs1 (J3KJC6 2-691 limits assumed): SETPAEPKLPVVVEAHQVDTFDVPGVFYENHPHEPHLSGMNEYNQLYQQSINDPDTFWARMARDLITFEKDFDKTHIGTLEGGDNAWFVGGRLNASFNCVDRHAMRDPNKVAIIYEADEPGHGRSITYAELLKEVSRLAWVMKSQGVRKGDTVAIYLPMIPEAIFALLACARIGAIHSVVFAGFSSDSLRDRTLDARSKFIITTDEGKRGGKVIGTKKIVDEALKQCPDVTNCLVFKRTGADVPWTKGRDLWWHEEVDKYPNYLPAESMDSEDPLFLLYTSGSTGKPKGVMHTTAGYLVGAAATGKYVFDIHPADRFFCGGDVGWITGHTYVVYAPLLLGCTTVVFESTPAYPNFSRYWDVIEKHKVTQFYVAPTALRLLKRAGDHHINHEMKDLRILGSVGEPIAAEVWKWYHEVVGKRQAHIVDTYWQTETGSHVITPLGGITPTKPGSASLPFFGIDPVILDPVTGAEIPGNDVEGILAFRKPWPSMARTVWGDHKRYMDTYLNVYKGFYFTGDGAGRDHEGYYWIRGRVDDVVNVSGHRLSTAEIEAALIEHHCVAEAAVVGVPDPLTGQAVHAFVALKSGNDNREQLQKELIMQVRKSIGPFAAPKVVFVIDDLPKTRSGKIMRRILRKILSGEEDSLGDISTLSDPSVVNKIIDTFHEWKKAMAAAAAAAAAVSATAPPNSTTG
Chain of C. posadasii Acs1 (C5PGB4 2-691 limits assumed): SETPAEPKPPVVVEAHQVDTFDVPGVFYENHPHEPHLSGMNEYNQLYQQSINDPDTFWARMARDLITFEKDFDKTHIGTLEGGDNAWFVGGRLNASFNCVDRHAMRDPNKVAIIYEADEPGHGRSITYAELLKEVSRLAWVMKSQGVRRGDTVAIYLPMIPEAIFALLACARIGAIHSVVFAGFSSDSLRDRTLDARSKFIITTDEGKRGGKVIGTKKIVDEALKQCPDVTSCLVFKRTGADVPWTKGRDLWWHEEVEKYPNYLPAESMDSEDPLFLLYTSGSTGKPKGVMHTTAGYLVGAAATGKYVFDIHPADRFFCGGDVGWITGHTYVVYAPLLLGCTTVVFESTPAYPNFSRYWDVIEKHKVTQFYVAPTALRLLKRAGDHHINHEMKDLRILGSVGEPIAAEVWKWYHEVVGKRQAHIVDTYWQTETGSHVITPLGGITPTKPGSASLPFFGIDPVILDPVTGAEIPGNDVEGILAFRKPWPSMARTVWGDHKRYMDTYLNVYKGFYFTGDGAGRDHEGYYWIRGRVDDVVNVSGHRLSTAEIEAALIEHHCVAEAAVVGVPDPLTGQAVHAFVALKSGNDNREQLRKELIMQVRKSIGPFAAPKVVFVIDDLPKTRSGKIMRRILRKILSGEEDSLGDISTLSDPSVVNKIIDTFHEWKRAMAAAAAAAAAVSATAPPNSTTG

For `CC(=O)O` [acetate, reference compound], the Km (C. immitis Acs1) was 32 ± 5 µM, the Km (C. posadasii Acs1) was 27 ± 2 µM and the “utilization as substrate for CnAcs1” value (CnAcs1; alternative acid substrates) was “optimum substrate”. For the same compound, the “calculated binding energy ΔG” value (CnAcs1; calculated for substrate binding) was -5.5 kcal/mol, the Km (CnAcs1; substrate Km, other substrates in excess (ATP 2.5 mM, CoA 1 mM, sodium acetate 0.5 mM), 37 °C, ±S.E.M.) was 130 ± 40 µM and the Km (A. fumigatus Acs1) was 18 ± 2 µM. It also gave a Km (C. albicans Acs1) of 79 ± 7 µM and a Km (S. cerevisiae Acs1) of 63 ± 13 µM.
